According to the supplement of paper PMC10307832:

Experiments:
Assay in all cases: relative viability (nuclei count vs DMSO), 5 days (fraction); higher = more cells survive
17-AAG + Tozasertib = compound: C=CCNC1=C2C[C@@H](C)C[C@H](OC)[C@H](O)[C@@H](C)/C=C(\C)[C@H](OC(N)=O)[C@@H](OC)/C=C\C=C(/C)C(=O)NC(=CC1=O)C2=O [17-AAG] + Cc1cc(Nc2cc(N3CCN(C)CC3)nc(Sc3ccc(NC(=O)C4CC4)cc3)n2)n[nH]1 [Tozasertib] (partner 0.1 µM)
How it was run: (§1)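 Relative viability was taken as the ratio of nuclei in treated wells to nuclei in vehicle wells. Lung cancer cell lines in 1536-well plates received compounds by pin tool one day after seeding, either one drug alone or a fixed anchor-drug dose plus five library-drug doses (not always all listed) in √10 steps. Nuclei were counted on 4× images after 5 days of treatment, and values are medians of duplicate plates.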

17-AAG + Dasatinib = compound: C=CCNC1=C2C[C@@H](C)C[C@H](OC)[C@H](O)[C@@H](C)/C=C(\C)[C@H](OC(N)=O)[C@@H](OC)/C=C\C=C(/C)C(=O)NC(=CC1=O)C2=O [17-AAG] + Cc1nc(Nc2ncc(C(=O)Nc3c(C)cccc3Cl)s2)cc(N2CCN(CCO)CC2)n1 [Dasatinib] (partner 0.075 µM)
How it was run: as §1

17-AAG + Foretinib = compound: C=CCNC1=C2C[C@@H](C)C[C@H](OC)[C@H](O)[C@@H](C)/C=C(\C)[C@H](OC(N)=O)[C@@H](OC)/C=C\C=C(/C)C(=O)NC(=CC1=O)C2=O [17-AAG] + COc1cc2c(Oc3ccc(NC(=O)C4(C(=O)Nc5ccc(F)cc5)CC4)cc3F)ccnc2cc1OCCCN1CCOCC1 [Foretinib] (partner 0.25 µM)
How it was run: as §1

17-AAG + Phenformin = compound: C=CCNC1=C2C[C@@H](C)C[C@H](OC)[C@H](O)[C@@H](C)/C=C(\C)[C@H](OC(N)=O)[C@@H](OC)/C=C\C=C(/C)C(=O)NC(=CC1=O)C2=O [17-AAG] + N=C(N)NC(=N)NCCc1ccccc1 [Phenformin] (partner 250 µM)
How it was run: as §1

17-AAG + OSI-027 = compound: C=CCNC1=C2C[C@@H](C)C[C@H](OC)[C@H](O)[C@@H](C)/C=C(\C)[C@H](OC(N)=O)[C@@H](OC)/C=C\C=C(/C)C(=O)NC(=CC1=O)C2=O [17-AAG] + COc1cccc2cc(-c3nc([C@H]4CC[C@H](C(=O)O)CC4)n4ncnc(N)c34)[nH]c12 [OSI-027] (partner 0.5 µM)
How it was run: as §1

17-AAG + Luminespib = compound: C=CCNC1=C2C[C@@H](C)C[C@H](OC)[C@H](O)[C@@H](C)/C=C(\C)[C@H](OC(N)=O)[C@@H](OC)/C=C\C=C(/C)C(=O)NC(=CC1=O)C2=O [17-AAG] + CCNC(=O)c1noc(-c2cc(C(C)C)c(O)cc2O)c1-c1ccc(CN2CCOCC2)cc1 [Luminespib] (partner 0.01 µM)
How it was run: as §1

17-AAG = compound: C=CCNC1=C2C[C@@H](C)C[C@H](OC)[C@H](O)[C@@H](C)/C=C(\C)[C@H](OC(N)=O)[C@@H](OC)/C=C\C=C(/C)C(=O)NC(=CC1=O)C2=O [17-AAG]
How it was run: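 In 1536-well plates, lung cancer cell lines rested overnight at 37 °C before five library-drug doses (not always all listed), √10 apart, were pinned onto vehicle-anchored plates. Nuclei were counted with MetaXpress from 4× Hoechst images taken after 5 days without medium change. Viability compares treated-well with vehicle-well nuclei as a median over plates, and plates needed control CV below 25% plus at least one doubling to pass.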

## NCI-H1623
17-AAG + Tozasertib; first compound 0.00128 µM
  relative viability: 0.412
17-AAG + Tozasertib; first compound 0.004048 µM
  relative viability: 0.401
17-AAG + Tozasertib; first compound 0.0128 µM
  relative viability: 0.497
17-AAG + Tozasertib; first compound 0.04048 µM
  relative viability: 0.261
17-AAG + Tozasertib; first compound 0.128 µM
  relative viability: 0.31
17-AAG + Dasatinib; first compound 0.00128 µM
  relative viability: 0.625
17-AAG + Dasatinib; first compound 0.004048 µM
  relative viability: 0.351
17-AAG + Dasatinib; first compound 0.0128 µM
  relative viability: 0.284
17-AAG + Dasatinib; first compound 0.04048 µM
  relative viability: 0.265
17-AAG + Dasatinib; first compound 0.128 µM
  relative viability: 0.284
17-AAG + Foretinib; first compound 0.00128 µM
  relative viability: 0.87
17-AAG + Foretinib; first compound 0.004048 µM
  relative viability: 0.695
17-AAG + Foretinib; first compound 0.0128 µM
  relative viability: 0.491
17-AAG + Foretinib; first compound 0.04048 µM
  relative viability: 0.304
17-AAG + Foretinib; first compound 0.128 µM
  relative viability: 0.336
17-AAG + Phenformin; first compound 0.00128 µM
  relative viability: 0.614
17-AAG + Phenformin; first compound 0.004048 µM
  relative viability: 0.369
17-AAG + Phenformin; first compound 0.0128 µM
  relative viability: 0.323
17-AAG + Phenformin; first compound 0.04048 µM
  relative viability: 0.268
17-AAG + Phenformin; first compound 0.128 µM
  relative viability: 0.285
17-AAG + OSI-027; first compound 0.00128 µM
  relative viability: 0.475
17-AAG + OSI-027; first compound 0.004048 µM
  relative viability: 0.463
17-AAG + OSI-027; first compound 0.0128 µM
  relative viability: 0.33
17-AAG + OSI-027; first compound 0.04048 µM
  relative viability: 0.254
17-AAG + OSI-027; first compound 0.128 µM
  relative viability: 0.33
17-AAG + Luminespib; first compound 0.00128 µM
  relative viability: 0.555
17-AAG + Luminespib; first compound 0.004048 µM
  relative viability: 0.369
17-AAG + Luminespib; first compound 0.0128 µM
  relative viability: 0.283
17-AAG + Luminespib; first compound 0.04048 µM
  relative viability: 0.273
17-AAG + Luminespib; first compound 0.128 µM
  relative viability: 0.267
17-AAG; 0.00128 µM
  relative viability: 0.978
17-AAG; 0.004048 µM
  relative viability: 0.919
17-AAG; 0.0128 µM
  relative viability: 0.755
17-AAG; 0.04048 µM
  relative viability: 0.31
17-AAG; 0.128 µM
  relative viability: 0.383
